Active and inactive are the calls of the source. No cut-off for these calls is given here.

Experimental findings from ChEMBL document CHEMBL5344411, “Phenotypic screening-based drug discovery of furan-2-carboxylic acid derivatives for the amelioration of type 2 diabetes mellitus (T2DM)” (Eur J Med Chem, 2023) are described below.

Series [1] relates to Hepatocyte. Put plainly: Inhibition of gluconeogenesis in Sprague-Dawley rat hepatocytes at 3 uM incubated for 1.5 hrs followed by sodium pyruvate and sodium lactate addition and measured after 4 hrs by colorimetric analysis relative to control. As to conditions: time 5.5 hrs. Type of series: functional.
The subject of series [2] is Mus musculus. The experiment in a line: Inhibition of gluconeogenesis in CD-1 mouse assessed as decrease in blood glucose level at 50 mg/kg administered via gavage at 1 hr prior to pyruvate sodium challenge and measured for 2 hrs by pyruvate tolerance test. Particulars: time 3.0 hrs. Type of series: functional, organism-based.
The test system of series [3] is Hepatocyte. Put plainly: Inhibition of gluconeogenesis in Sprague-Dawley rat hepatocytes at 1 uM incubated for 1.5 hrs followed by sodium pyruvate and sodium lactate addition and measured after 4 hrs by colorimetric analysis relative to control. Type of series: functional. Particulars: time 5.5 hrs.
The subject of series [4] is Mus musculus. The experiment in a line: Antihyperglycemic activity in diabetic ob/ob mouse assessed as reduction in fasting blood glucose level at 15 mg/kg administered via gavage qd for 24 days and measured on day 24. Particulars: time 24.0 day. The series is classed as functional, organism-based.
Series [5] relates to Mus musculus. The experiment in a line: Inhibition of gluconeogenesis in CD-1 mouse assessed as decrease in blood glucose level at 50 mg/kg administered via gavage at 2 hrs prior to pyruvate sodium challenge and measured for 2 hrs by pyruvate tolerance test. Type of series: functional, organism-based. Particulars: time 4.0 hrs.
In series [6] the test system is Hepatocyte. Put plainly: Inhibition of gluconeogenesis in Sprague-Dawley rat hepatocytes at 10 uM incubated for 1.5 hrs followed by sodium pyruvate and sodium lactate addition and measured after 4 hrs by colorimetric analysis relative to control. The series is classed as functional. As to conditions: time 5.5 hrs.
Series [7] is described as follows: Toxicity in diabetic ob/ob mouse assessed as effect on body weight at 15 mg/kg administered via gavage qd for 24 days. Type of series: organism-based. As to conditions: in vivo, po, 576 h, time 24 day.
The nature of series [8]: Toxicity in diabetic ob/ob mouse assessed as effect on daily food intake at 15 mg/kg administered via gavage qd for 24 days. Type of series: organism-based. As to conditions: in vivo, po, 576 h, time 24 day.
The subject of series [9] is Hepatocyte. The experiment in a line: Inhibition of gluconeogenesis in Sprague-Dawley rat hepatocytes at 0.3 uM incubated for 1.5 hrs followed by sodium pyruvate and sodium lactate addition and measured after 4 hrs by colorimetric analysis relative to control. As to conditions: time 5.5 hrs. Type of series: functional.
The subject of series [10] is Mus musculus. The experiment in a line: Antihyperglycemic activity in diabetic ob/ob mouse assessed as reduction in non-fasting blood glucose level at 15 mg/kg administered via gavage qd for 24 days and measured on day 24. The series is classed as functional, organism-based. Particulars: time 24.0 day.

With `C=CCc1ccc(OCc2ccc(C(=O)O)o2)c(OC)c1`, the “fold change (FC)” value is on record as 0.73 in series [1], 0.92 in [3], 0.57 in series [6] and 0.96 in series [9]. The inhibition entry in series [2] and in series [5] was “Active” in each case. In addition, the outcome in series [4] and in series [10] was Active. In addition, the Activity result in series [7] and in [8] was “Non-Toxic” throughout.
